Data on eight molecules can be found in ChEMBL document CHEMBL3244356, “Synthesis of some pentazocine metabolites and related compounds” (1977).

Test [1] deals with Rattus norvegicus. Nature of the test: Antinociceptive activity in rat at 120 mg/kg, sc by D'Amour-Smith thermal stimulus test. Further details: dose 120 mg/kg. It is filed as functional, organism-based.
The species named for test [2] is Rattus norvegicus. Nature of the test: Inhibition of meperidine-induced antinociceptive activity in rat by D'Amour-Smith thermal stimulus test. Type of test: functional.
The species entered for test [3] is Rattus norvegicus. Nature of the test: Antinociceptive activity in rat assessed as protection from p-phenylquinone-induced writhing. It is filed as functional.
For test [4], the system named is Rattus norvegicus. As to the kind of experiment: Inhibition of meperidine-induced antinociceptive activity in rat at 80 mg/kg, sc by D'Amour-Smith thermal stimulus test. It is filed as functional, organism-based. More on the design: dose 80 mg/kg.
In test [5] the test system is Rattus norvegicus. As to the kind of experiment: Antinociceptive activity in rat assessed as protection from p-phenylquinone-induced writhing at 100 mg/kg, sc. More on the design: dose 100 mg/kg. It is filed as functional, organism-based. Background: Writhing tests count abdominal constrictions after an irritant is injected.
Test [6] concerns Rattus norvegicus. As to the kind of experiment: Antinociceptive activity in rat at 60 mg/kg, sc by D'Amour-Smith thermal stimulus test. Type of test: functional, organism-based. More on the design: dose 60 mg/kg.
Test [7] has as its system Rattus norvegicus. As to the kind of experiment: Inhibition of meperidine-induced antinociceptive activity in rat at 40 mg/kg, sc by D'Amour-Smith thermal stimulus test. It is filed as functional, organism-based. More on the design: dose 40 mg/kg.

As a reminder, the ED50 is the midpoint of the dose-response relation.

Each structure is given as a SMILES string. Activity calls are given as the source filed them. The calls are words filed in the database; no cut-off is given here.

Turning to `CCOC(=O)CN1CC[C@@]2(C)c3cc(O)ccc3C[C@@H]1[C@@H]2C` (racemic), the outcome in test [1] was inactive. The molecule further gave an AD50 in test [2] of 66 mg/kg.
For the molecule `CC(C)C(=O)CN1CC[C@@]2(C)c3cc(O)ccc3C[C@@H]1[C@@H]2C` (racemic), in test [2], the AD50 turned out to be 2.8 mg/kg.
Consider `C/C(=C\CN1CC[C@@]2(C)c3cc(O)ccc3C[C@@H]1[C@@H]2C)CO` (racemic), for which the median effective dose (ED50) in test [3] worked out at 37 mg/kg. The molecule further displayed an AD50 in test [2] greater than 320 mg/kg.
Take `C[C@H]1[C@H]2Cc3ccc(O)cc3[C@]1(C)CCN2CCC(C)(C)O` (racemic): the outcome in test [1] was inactive. Also, the 50% effective dose (ED50) in test [3] came to 37 mg/kg. The inhibition result in test [4] is “inactive”.
With `C/C(=C\CN1CC[C@@]2(C)c3cc(O)ccc3C[C@@H]1[C@@H]2C)C(=O)O` (racemic), the outcome in test [5] was inactive. Further, in test [2], the AD50 entry is “inactive”.
`CC(=O)CCN1CC[C@@]2(C)c3cc(O)ccc3C[C@@H]1[C@@H]2C` (racemic): the outcome in test [1] was inactive. Further, the 50% effective dose (ED50) in test [3] was 22 mg/kg. In test [2], the AD50 was determined as 1.7 mg/kg.
In the case of `CC(C)=CCN1CC[C@]2(C)c3cc(O)ccc3C[C@H]1[C@H]2C` [(+)-PENTAZOCINE], in test [1], the outcome was inactive. Besides, the ED50 in test [3] worked out at 2.3 mg/kg. The same molecule returned an AD50 in test [2] of 3.9 mg/kg.
On to `C[C@H]1[C@H]2Cc3ccc(O)cc3[C@]1(C)CCN2CC(=O)O` (racemic), for which, in test [6], the result was inactive. Moreover, in test [7], the inhibition entry was “inactive”.
